This test concerns the target T1, cat T1R1/T1R3 receptor (Felis catus, UniProt A0ABI7Z2I4).
T1 sequence (A0ABI7Z2I4 171-420): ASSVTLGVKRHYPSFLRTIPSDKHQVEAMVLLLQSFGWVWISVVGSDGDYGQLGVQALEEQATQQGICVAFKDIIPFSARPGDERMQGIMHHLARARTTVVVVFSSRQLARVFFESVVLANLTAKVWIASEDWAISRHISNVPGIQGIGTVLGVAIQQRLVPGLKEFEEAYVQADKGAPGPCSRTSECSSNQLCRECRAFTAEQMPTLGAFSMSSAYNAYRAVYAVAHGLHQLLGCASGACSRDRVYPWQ
T1 sequence (Q49KI5 25-865 E206Q/N523D/F654L partner): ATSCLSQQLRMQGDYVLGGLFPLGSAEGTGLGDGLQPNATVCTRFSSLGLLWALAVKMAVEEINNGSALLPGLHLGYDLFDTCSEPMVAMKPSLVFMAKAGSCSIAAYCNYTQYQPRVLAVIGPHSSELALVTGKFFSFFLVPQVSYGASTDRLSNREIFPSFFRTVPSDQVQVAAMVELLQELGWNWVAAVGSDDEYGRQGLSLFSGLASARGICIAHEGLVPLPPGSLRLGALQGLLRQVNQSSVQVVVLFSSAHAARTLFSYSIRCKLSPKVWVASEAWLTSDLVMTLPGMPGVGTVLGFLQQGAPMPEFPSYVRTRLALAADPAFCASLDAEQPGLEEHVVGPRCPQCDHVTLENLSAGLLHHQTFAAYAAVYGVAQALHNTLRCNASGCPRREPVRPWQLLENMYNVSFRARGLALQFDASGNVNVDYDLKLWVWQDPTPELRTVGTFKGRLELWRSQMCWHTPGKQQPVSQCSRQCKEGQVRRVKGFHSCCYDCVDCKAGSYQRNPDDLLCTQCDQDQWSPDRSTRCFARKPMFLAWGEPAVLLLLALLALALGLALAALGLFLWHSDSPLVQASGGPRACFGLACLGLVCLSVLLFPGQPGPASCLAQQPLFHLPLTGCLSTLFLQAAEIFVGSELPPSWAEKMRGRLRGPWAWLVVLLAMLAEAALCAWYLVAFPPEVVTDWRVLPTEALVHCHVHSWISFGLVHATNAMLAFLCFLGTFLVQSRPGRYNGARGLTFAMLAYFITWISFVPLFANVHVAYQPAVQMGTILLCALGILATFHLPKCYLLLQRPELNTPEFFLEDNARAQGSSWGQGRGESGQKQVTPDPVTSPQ
The test is described as follows: cell-based. To be noted: for function as activators of T1R1/T1R3 (in words): in the presence of alanine. The source says: HEK293 cells that stably express T1R3 and inducibly express T1R1 were exposed to nucleotide derivatives alone or in combination with one or more amino acids and/or one or more nucleotides to activate the umami receptor. Activation of the T1R1/T1R3 receptor was detected by a change in intracellular calcium levels using a calcium sensitive fluorescent dye and/or a luminescent reporter system. Cells that express T1R3 but not T1R1 were used as a control. A FLIPR® Tetra or a FlexStation® 3 was used for data capture.

[1] abbreviates: maximum response in relation to the response with IMP, 20 mM alanine.
Setting [2] is: maximum response of the receptor, 20 mM alanine.
[3] abbreviates: threshold amount that results in activation of T1R1/T1R3, 20 mM alanine.

The text below walks through data of US20180168208A1 (priority 2014, published 2018).

Counter-ions that a name gives are not always drawn. Like-named read-outs stand apart in the source and are kept apart here. Bounds are passed on as bounds.

For `O=C(Nc1ncnc2c1ncn2[C@@H]1O[C@H](COP(=O)(O)O)[C@@H](O)[C@H]1O)c1ccccc1`, the outcome was active, the “Max resp. (ΔF/F)” value is 1.1 ΔF/F and the Threshold came out at 0.3 mM. In addition, the half-maximal effective concentration (EC50) (read-out: EC50- with Ala) is above 1000 µM.
For the compound `Nc1nc(Cl)c2ncn(C3OC(COP(=O)(O)O)C(O)C3O)c2n1` (stereo not drawn) [2-amino-6-chloropurineriboside-5′-O-monophosphate], the outcome was active, the EC50 is 0.5 µM and the Threshold was 0.00013 mM.
With `Nc1ncnc2c1ncn2C1OC(COP(=O)(O)OS(=O)(=O)O)C(O)C1O` (stereo not drawn) [Adenosine 5′-phosphosulfate sodium salt, Adenosine 5′-phosphosulfate], the Threshold came out at 0.008 mM.
Take “2′-,3′-O-(N′-Methylanthraniloyl)guanosine-5′-O-monophosphate”: for the setting “+Alanine (20 mM)”, the result was active. In addition, the “Max. resp. % of IMP” value under setting [1] is given as 74.3 % of IMP. Further, under setting [2], the “Max resp. (ΔF/F)” value was 0.7190 ΔF/F. The Threshold under setting [3] is given as 0.0014 mM.
`O=c1ccn(C2OC(COP(=O)(O)N3CCOCC3)C(O)C2O)c(=O)[nH]1` (stereo not drawn): the “Max. resp. % of IMP” value under setting [1] is recorded as 104.8 % of IMP. In addition, the “Max resp. (ΔF/F)” value under setting [2] is 1.0150 ΔF/F. For the same compound, under setting [3], the Threshold worked out at 2.000 mM.
In the case of `Nc1ncnc2c1nc(Cl)n2[C@@H]1O[C@H](COP(=O)(O)O)C(O)C1O` (stereo partly drawn) [8-Chloroadenosine-5′-O-monophosphate], the “Max resp. (ΔF/F)” value is 0.79 ΔF/F, the “Max. resp. % of IMP” value is listed as 63.6 % of IMP and the Threshold is on record as 0.2 mM. In addition, the outcome (+Alanine (20 mM)) was active.
As for `Nc1nc2c(ncn2C2OC(COP(=O)(O)N3CCOCC3)C(O)C2O)c(=O)[nH]1` (stereo not drawn) [Guanosine 5′-monophosphomorpholidate 4-morpholine-N,N′-dicyclohexylcarboxamidine salt], the outcome (+Alanine (20 mM)) was active. Further, the “Max. resp. % of IMP” value under setting [1] was 52.9 % of IMP. Also, under setting [2], the “Max resp. (ΔF/F)” value was 0.5121 ΔF/F. Besides, under setting [3], the Threshold is on record as 0.325 mM.
`O=c1[nH]cnc2c1ncn2C1CC(O)C(COP(O)(O)=S)O1` (stereo not drawn) [2′-Deoxyinosine-5′-O-monophosphorothioate]: the result was active and the Threshold is listed as 0.025 mM.
In the case of `Nc1nc2c(nc(Br)n2[C@@H]2O[C@H](COP(=O)(O)O)[C@@H](O)[C@H]2O)c(=O)[nH]1` [8-Bromoguanosine-5′-O-monophosphate], the outcome was active, the “Max resp. (ΔF/F)” value is listed as 0.375 ΔF/F, the “Max. resp. % of IMP” value was 30.2 % of IMP and the Threshold is 1 mM.
The corresponding values for `O=c1ccn([C@H]2C[C@H](O)[C@@H](COP(O)(O)=S)O2)c(=O)[nH]1` [2′-Deoxyuridine-5′-O-monophosphosphorothioate (5′-dUMPS)] are “active”, 0.4200 ΔF/F, 43.4 % of IMP and 5.000 mM.
As to `Nc1nc2c(ncn2[C@@H]2O[C@H](COP(=O)(O)OP(=O)(O)O)[C@@H](O)[C@H]2O)c(=O)[nH]1` [Guanosine 5′-diphosphate sodium salt, Guanosine 5′-diphosphate], the result was active, the EC50 is 200 µM and the Threshold came out at 0.050 mM.
For “2′-,3′-O-(N′-Methylanthraniloyl) guanosine-5′-O-monophosphate”, the “Max. resp. % of IMP” value under setting [1] is listed as 74.3 % of IMP. Under setting [2], the “Max resp. (ΔF/F)” value is reported as 0.7190 ΔF/F. For the same compound, under setting [3], the Threshold amounted to 0.0014 mM.
Regarding `Nc1ncnc2c1ncn2[C@H]1C[C@H](OP(=O)(O)O)[C@@H](COP(=O)(O)O)O1` [2′-Deoxyadenosine-3′,5′-O-bisphosphate], the outcome was active.
As to `CNc1ncnc2c1ncn2[C@@H]1O[C@H](COP(=O)(O)O)[C@@H](O)[C@H]1O` [N6-Methyladenosine 5′-monophosphate], the Threshold is on record as 0.020 mM. In addition, under “+Alanine (20 mM)”, the outcome was active.
Regarding `CNc1ccccc1C(=O)O[C@H]1C[C@H](n2cnc3c(N)ncnc32)O[C@@H]1COP(=O)(O)O` [2′-Deoxy-3′-O-(N′-methylanthraniloyl)adenosine-5′-O-monophosphate], the outcome was active, the “Max resp. (ΔF/F)” value is on record as 0.3975 ΔF/F, the “Max. resp. % of IMP” value is given as 32.0 % of IMP and the Threshold stood at 0.0025 mM.
Consider `O=P(O)(O)OC[C@H]1O[C@@H](n2cnc3c(NC4CCCC4)ncnc32)[C@H](O)[C@@H]1O` [N6-Cyclopentyladenosine-5′-O-monophosphate], for which the result was active and the Threshold turned out to be 0.013 mM.
Consider `NC(=O)c1ncn(C2OC(COP(=O)(O)O)C(O)C2O)c1N` [5-Aminoimidazole-4-carboxamide-1-β-D-ribofuranosyl 5′-monophosphate], for which the outcome was active, the EC50 is above 1000 µM and the Threshold came to 0.200 mM.
As to `Nc1nc2c(ncn2[C@@H]2O[C@H](COP(=O)(O)O)[C@@H](O)[C@H]2O)c(=S)[nH]1` [6-thioguanosine-5′-O-monophosphate], the EC50 turned out to be 0.9 µM, the Threshold turned out to be 0.0002 mM and the “function as activators of T1R1/T1R3 (in words)” value (from here on “function as activators”) was “activators of T1R1/T1R3”.
Take “2′-, 3′-O—(N′-methylanthraniloyl)guanosine-5′-O-monophosphate”: the “function as activators” value is listed as “activators of T1R1/T1R3”.
Consider `O=P(O)(O)OC[C@H]1O[C@@H](n2cnc3c2ncn2ccnc32)[C@H](O)[C@@H]1O` [1, N6-Ethenoadenosine-5′-O-monophosphate], for which the Threshold is 0.010 mM.
Consider `CNc1ncnc2c1ncn2[C@H]1C[C@H](OP(=O)(O)O)[C@@H](COP(=O)(O)O)O1`, for which the “Max resp. (ΔF/F)” value is 1.8150 ΔF/F, the “Max. resp. % of IMP” value was 146.1 % of IMP and the Threshold is on record as 0.013 mM.
The like results for `O=c1ccn([C@H]2C[C@H](O)[C@@H](COP(O)(O)=S)O2)c(=O)[nH]1` [2′-Deoxyuridine-5′-O-monophosphorothioate (5′-dUMPS)] were, in that order, 0.4200 ΔF/F, 43.4 % of IMP and 5.000 mM.
For `Nc1ncnc2c1ncn2[C@@H]1O[C@H](COP(=O)(O)O)[C@@H](O)[C@H]1O` [adenosine monophosphate], the result was active and the Threshold was found to be 0.003 mM.
In the case of `Nc1nc2c(ncn2[C@@H]2O[C@H](COP(O)(O)=S)[C@@H](O)[C@H]2O)c(=O)[nH]1` [Guanosine-5′-monophosphorothioate], the outcome was active, the EC50 came out at 10 µM, the “Max resp. (ΔF/F)” value is 1.29 ΔF/F and the “Max. resp. % of IMP” value was 103.8 % of IMP. Moreover, the Threshold worked out at 0.0025 mM and the “function as activators” value is listed as “activators of T1R1/T1R3”.
Take `Nc1ncnc2c1ccn2[C@H]1O[C@@H](COP(=O)(O)O)[C@H](O)[C@@H]1O` (stereo in doubt) [7-Deazaadenosine-5′-O-monophosphate]: the result was active and the Threshold was determined as 0.188 mM.
The corresponding values for `O=P(O)(O)OC[C@H]1O[C@@H](n2cnc3cncnc32)[C@H](O)[C@@H]1O` [Purine riboside-5′-O-monophosphate, reference compound] are “active” and 0.005 mM.
Turning to `Nc1nc2c(ncn2[C@H]2C[C@H](O)[C@@H](COP(O)(O)=S)O2)c(=O)[nH]1` [2′-Deoxyguanosine-5′-O-monophosphorothioate], the result was active, the Threshold amounted to 0.005 mM and the “function as activators” value is reported as “activators of T1R1/T1R3”.
For the compound `Nc1ncnc2c1ncn2[C@@H]1O[C@H](COP(=O)(O)O)[C@@H](O)[C@H]1O` [adenosine monophosphate (AMP), adenosine monophosphate, reference compound], the EC50 was 11 µM.

The EC50 is the midpoint of the concentration-response curve.
